Test results taken from paper PMC4516563 (Biochimica et biophysica acta, 2015).

Columns and labels:
human brain U251N = settings: disc diffusion, 30-45 ug per disc, 7-10 days; result in words
[1] = pharmacokinetic studies, clinical trials in patients; cited from earlier work
human colon HCT116 = settings: disc diffusion, 30-45 ug per disc, 7-10 days; result in words
[2] = tested on: human pancreatic cancer PANC1; settings: disc diffusion, 30-45 ug per disc, 7-10 days; result in words

For Kahalalide F [KF], the “cytotoxicity based on the zone assay, U251N” value (human brain U251N) is listed as “minimal”, the half-life [1] is listed as “approximately 30 min” and the “cytotoxicity based on the zone assay, HCT-116” value (human colon HCT116) is listed as “minimal”. For the same substance, the “cytotoxicity based on the zone assay, PANC-1” value [2] was “minimal”.
